In ChEMBL document CHEMBL3301361, “Experimental in vitro DMPK and physicochemical data on a set of publicly disclosed compounds”:

Test: physchem
Details: octan-1-ol/water, pH 7.4

Row | SMILES | logD
1 | Nc1ccccc1[N+](=O)[O-] [2-NITROANILINE] | -0.96
2 | O=C1C(=O)c2ccccc2-c2ccccc21 [9,10-PHENANTHRENEQUINONE] | 2.6
3 | CCN(CC)C(=O)c1ccc(C2=CC3(CCNCC3)Oc3ccccc32)c(O)c1 [ADL-5747 FREE BASE] | 0.77
4 | CCN(CC)C(=O)c1ccc(C2=CC3(CCNCC3)Oc3cccc(O)c32)cc1 [ADL-5859] | 0.54
5 | Oc1ncnc2[nH]ncc12 [ALLOPURINOL] | -0.42
6 | CCC1(c2ccc(N)cc2)CCC(=O)NC1=O (stereo not drawn) [AMINOGLUTETHIMIDE] | 0.6
7 | Clc1ccc([C@]23CNC[C@H]2C3)cc1Cl [AMITIFADINE] | 1.96
8 | CC(C)(C)OC(=O)c1ncn2c1[C@@H]1CCCN1C(=O)c1c(Br)cccc1-2 [BRETAZENIL] | 2.48
9 | C=CCC1(CC(C)C)C(=O)NC(=O)NC1=O [BUTALBITAL] | 1.48
10 | CCCCC1(CC)C(=O)NC(=O)NC1=O [BUTETHAL] | 1.5
11 | CC(N)Cc1c[nH]c2ccc(OCc3cccs3)cc12 (stereo not drawn) [BW-723C86] | 0.48

Same assay, conditions: octan-1-ol/water, pH 7.4, LogD7.4

Row | SMILES | logD
12 | CN(C)CC(O)COc1ccc(Nc2nccc(Nc3ccccc3)n2)cc1 (stereo not drawn) | 1.58
13 | CC(C)C(NC(=O)Cn1c(-c2ccccc2)ccc(NS(C)(=O)=O)c1=O)C(=O)C(F)(F)F (stereo not drawn) | 1.77
14 | CC(C)CC(c1ccncc1)n1[nH]c(=O)c2nc3cc(Cl)ccc3c(O)c2c1=O (stereo not drawn) | 1.64
15 | Cc1cc(C)cc(-c2c(O)nc3cc(Cl)c(C(=O)Nc4ccncn4)cc3c2OCCC2CCCCN2)c1 (stereo not drawn) | 1.7
16 | C[C@H](N)C(=O)N[C@H](/C=C/S(=O)(=O)c1ccccc1)CCc1ccccc1 | 1.66
17 | O=C1Nc2ccccc2C1(O)c1ccccc1 (stereo not drawn) | 1.71
18 | CC(C)C(=O)Nc1ccc2c(c1)C(=O)NC2=O | 1.55
19 | COC(Cn1c(=O)[nH]c2c(=O)n(CC(=O)NC(C(=O)C(F)(F)F)C(C)C)c(-c3ccccc3)cc2c1=O)OC (stereo not drawn) | 1.56
20 | CC(C)C(NC(=O)Cn1c(-c2ccccc2)ccc(N)c1=O)C(=O)C(F)(F)F (stereo not drawn) | 1.74
21 | CN(C)c1ccnc2sc(C(N)=O)c(N)c12 | 1.7
22 | Cc1oc(-c2ccc(Cl)cc2)cc1C(=O)O | 1.67
23 | Nc1nccc(-c2cccs2)n1 | 1.75
24 | OC(c1ccccc1)c1cccnc1 (stereo not drawn) | 1.72
25 | CC(=O)NC[C@H]1CN(c2ccc(-n3ccc(C#N)c3)c(F)c2)C(=O)O1 | 1.6
26 | O=S(=O)(Nc1cccc2[nH]ncc12)c1cccs1 | 1.7
27 | Nc1nc2ccccc2n1C(=O)c1ccccc1 | 1.56
28 | CC(=O)N1CCN(CC(O)COc2ccc(Br)cc2)CC1 (stereo not drawn) | 1.6
29 | Clc1ccc(C2=CSC3=NCCN23)cc1Cl | 1.54
30 | CC(=O)NCc1ccc(CN2CCN(c3ccccc3)CC2)cc1 | 1.78
31 | COCCNCc1cncc(-c2ccc(F)cc2OC)n1 | 1.61
32 | COc1cc(F)ccc1-c1cc(CNC2CCCC2)ccn1 | 1.71
33 | COc1ccc2nc(C)cc(-n3cc(CNC(C)=O)nn3)c2c1 | 1.6
34 | C[C@H]1O[C@@H](n2cnc3c(N)nc(OC4CC5CC5C4)nc32)[C@H](O)[C@@H]1O (stereo partly drawn) | 1.66
35 | CCC(c1nc2ccsc2c(=O)n1Cc1ccc(C)cc1)N(CCCN)C(=O)c1ccc(C)cc1 (stereo not drawn) | 1.69
36 | CCC(c1nc2ccn(C)c2c(=O)n1Cc1ccccc1)N(CCCN)C(=O)c1ccc(C)cc1 (stereo not drawn) | 1.8

Row | SMILES | logD
37 | CCC(c1nc2snc(C)c2c(=O)n1Cc1ccccc1)N(CCCN)C(=O)c1ccc(C)cc1 (stereo not drawn) | 1.61
38 | Cc1ccc(NC(=O)c2ccnc(N3CCOCC3)c2)cc1Nc1ccnc(OC2CCN(C)CC2)n1 | 1.8
39 | CCC(CC)NC(=O)c1cnn(Cc2ccccc2)c1NS(=O)(=O)c1ccc(C)cc1 | 1.52
40 | COc1ccc2c(C)cc(=O)n(CCN3CCC(NCc4cc5c(cn4)OCCO5)CC3)c2c1 | 1.72
41 | Cc1[nH]c(C(=O)NC2CCN(c3cc(C(=O)O)cc(Cl)n3)CC2)c(Cl)c1Cl | 1.74
42 | C[C@H]1O[C@@H](n2cnc3c(N)nc(OCC4CCC(F)(F)CC4)nc32)[C@H](O)[C@@H]1O | 1.72
43 | Nc1n[nH]c2c(Cl)cccc12 | 1.7
44 | COc1ccc(-c2nc3c(NCCCNC(=O)C4CC4)c(Br)cnc3[nH]2)cc1 | 1.71
45 | COc1ccc(-c2cc(=O)[nH]c(N)n2)cc1 | 1.52
46 | O=c1c2ccc(O)cc2ncn1-c1ccc(O)cc1 | 1.6
47 | CC(C)Cn1c(=O)n(C)c(=O)c2c(C(=O)N3CC[C@@H](O)C3)c(Cc3ccnc4ccccc34)sc21 | 1.65
48 | CC(C)Cn1c(=O)n(C)c(=O)c2c(C(=O)N3CC[C@@H](O)C3)c(Cc3cncc4ccccc34)sc21 | 1.74
49 | Nc1ccc2c(c1)C(=O)C(=O)c1cc(N)ccc1-2 | 1.72
50 | Cc1ccc2c(c1)c(-c1ccnc3cc(C(F)(F)F)ccc13)c(C)n2CC(=O)O | 1.78
51 | c1ccc2c(c1)nnn2-c1ccncc1 | 1.69
52 | CCCSc1ncccc1C(=O)N(C)C1CCOCC1 | 1.63
53 | CCCSc1nc(N2CCCC(C(=O)O)C2)ccc1C(=O)NC1CCCCC1 (stereo not drawn) | 1.72
54 | O=C(O)C(c1ccccc1)N1CCO[C@@H](CN2CCC(Oc3ccc(Cl)c(Cl)c3)CC2)C1 (stereo partly drawn) | 1.71
55 | O=C(O)c1ccccc1C(=O)N1CCC(N2CCC(Oc3ccc(Cl)c(Cl)c3)CC2)CC1 | 1.73
56 | Cc1ccc(S(=O)(=O)NC(=O)N2CCC(N3CCC(Oc4ccc(Cl)cc4)CC3)CC2)cc1 | 1.6
57 | CC1=NC(C)(c2cccc(-c3cccnc3)c2)N=C1N (stereo not drawn) | 1.7
58 | CNc1nc2ccccc2n1Cc1sc2c(c1C(=O)N1C[C@H](O)CO1)c(=O)n(C)c(=O)n2CC(C)C | 1.77
59 | C1=CCC(c2ccc3ccccc3c2)CNC1 (stereo not drawn) | 1.64
60 | COc1ccc(C(C)NC(=O)C2(N)CCN(c3ncnc4[nH]ccc34)CC2)cc1OC (stereo not drawn) | 1.8
61 | CN(C)C(=O)c1ccc(CN2CCc3cc4nc(N)sc4cc3CC2)cc1 | 1.72

Row | SMILES | logD
62 | C[C@@H](NC(=O)[C@H]1CCCNC1)c1ccc(Nc2ncc3cc(-c4ccncc4)ccc3n2)cc1 | 1.69
63 | CCCCCc1cc(=O)[nH]c(N)n1 | 1.62
64 | COc1ccccc1CNC(=O)c1ccc2cnccc2n1 | 1.8
65 | Cn1c(=N)n(CC(=O)c2ccc(Cl)cc2)c2ccccc21 | 1.63
66 | CNC(=O)c1cccc(S(=O)(=O)Nc2ncc(C)nc2OC)c1-c1ccc(CC(C)C)cc1 | 1.68
67 | O=C(Nc1cc(C(F)(F)F)cc(C(F)(F)F)c1)c1cnc(Cl)nc1C(F)(F)F | 1.8
68 | NC(=O)c1ccc(Br)cc1 | 1.75
69 | COc1cc2c(Nc3c(Cl)ccc4c3OCO4)ncnc2cc1OCCCN1CCCC1 | 1.62
70 | O=C(NCC12CC3CC(CC(C3)C1)C2)c1cc(C2CCNCC2)ccc1Cl | 1.58
71 | CC1(c2ccc(Cl)c(Cl)c2)CC(=O)NC(N)=N1 (stereo not drawn) | 1.59
72 | O=C(O)c1ccc(Nc2ncc(Br)c(Nc3ccccc3)n2)cc1 | 1.65
73 | CC(=O)Nc1ccc(-c2ccccc2)n(CC(=O)NC(C(=O)C(F)(F)F)C(C)C)c1=O (stereo not drawn) | 1.78
74 | Clc1ccc(C2(c3ccc(-c4cn[nH]c4)cc3)CCNCC2)cc1 | 1.51
75 | Oc1c2ncc3ccccc3c2nn1-c1ccc(Cl)cc1 | 1.52
76 | COc1cc2c(Nc3ccc(F)cc3F)c(C(N)=O)cnc2cc1NCCN(C)C | 1.71
77 | COc1cc2c(Nc3ccc(F)cc3F)c(C(N)=O)cnc2cc1N1CCN(C)CC1 | 1.75
78 | COC(=O)COc1ccc(OCCNCC(O)COc2ccccc2)cc1 (stereo not drawn) | 1.54
79 | O=C(c1cc2cc(Cl)ccc2[nH]1)N1CCNCC1 | 1.65
80 | NC(=O)Nc1sc(-c2ccc(F)cc2)cc1C(=O)N[C@H]1CCCNC1 | 1.76
81 | CC(C)CCCC(C)/N=c1\ccn(Cc2ccccc2)c2cc(Cl)ccc12 (stereo not drawn) | 1.58
82 | COc1nc(Cl)cnc1NS(=O)(=O)c1cccc2c(N(C)C)cccc12 | 1.74
83 | Nc1nc(N)c2cc(Br)ccc2n1 | 1.78
84 | c1ccc(-c2ccc3ccccc3n2)cc1 [2-PHENYLQUINOLINE] | 4
85 | Nc1ncnc2ccccc12 [4-AMINOQUINAZOLINE] | 1.26
86 | O=c1cc(-c2ccccc2)oc2ccc(O)cc12 [6-HYDROXYFLAVONE] | 3.6

Row | SMILES | logD
87 | CC(=O)c1ccc(S(=O)(=O)NC(=O)NC2CCCCC2)cc1 [ACETOHEXAMIDE] | -0.49
88 | Cc1c(CN(C)C(=O)/C=C/c2cnc3c(c2)CCC(=O)N3)oc2ccccc12 [AFN-1252] | 2.36
89 | Cn1ncc(Cl)c1-c1cc(C(=O)N[C@H](CN)Cc2cccc(F)c2)sc1Cl [AFURESERTIB] | 2.99
90 | CN(C)c1nc(N(C)C)nc(N(C)C)n1 [ALTRETAMINE] | 2.44
91 | CC(C)c1ccc2oc3nc(N)c(C(=O)O)cc3c(=O)c2c1 [AMLEXANOX] | 1.1
92 | CCO/N=C(\c1ccc(Br)cc1)C1CCN(C2(C)CCN(C(=O)c3c(C)cc[n+]([O-])c3C)CC2)CC1 [ANCRIVIROC] | 2.14
93 | CNCC[C@@H](Oc1ccccc1C)c1ccccc1 [ATOMOXETINE] | 1.2
94 | Cn1cnc([N+](=O)[O-])c1Sc1ncnc2nc[nH]c12 [AZATHIOPRINE] | 0.19
95 | CN1CCCC(n2nc(Cc3ccc(Cl)cc3)c3ccccc3c2=O)CC1 (stereo not drawn) [AZELASTINE] | 2.46
96 | CCCN1CCN(c2ccc(C(=O)NC3(C(=O)NCC#N)CCCCC3)cc2)CC1 [BALICATIB] | 1.33
97 | NS(=O)(=O)c1cc2c(cc1C(F)(F)F)NC(Cc1ccccc1)NS2(=O)=O (stereo not drawn) [BENDROFLUMETHIAZIDE] | 1.78
98 | CCOC(=O)c1ccc(N)cc1 [BENZOCAINE] | 1.83
99 | CC(C)COCC(CN(Cc1ccccc1)c1ccccc1)N1CCCC1 (stereo not drawn) [BEPRIDIL] | 3.66
100 | COc1ccc(-c2coc3cc(OC)cc(OC)c3c2=O)cc1 [BIOCHANIN A, DIMETHYL ETHER] | 3.05
101 | COc1ccc(-c2coc3cc(O)cc(O)c3c2=O)cc1 [BIOCHANIN] | 3.5
102 | OC(CCN1CCCCC1)(c1ccccc1)C1CC2C=CC1C2 (stereo not drawn) [BIPERIDEN] | 2.49
103 | C[C@H](Oc1ccc(S(C)(=O)=O)cc1C(=O)N1CCN(c2ncc(C(F)(F)F)cc2F)CC1)C(F)(F)F [BITOPERTIN] | 3.49
104 | CCN(CC)CCNC(=O)c1cc(Br)c(N)cc1OC [BROMOPRIDE] | 0.54
105 | CCCCN(CCCC)CCCOC(=O)c1ccc(N)cc1 [BUTACAINE] | 1.93
106 | CCCCCOC(=O)Nc1nc(=O)n([C@@H]2O[C@H](C)[C@@H](O)[C@H]2O)cc1F [CAPECITABINE] | 0.67
107 | O=C1CCCCCN1 [CAPROLACTAM] | -0.08
108 | CCN(CC)CCOCCOC(=O)C1(c2ccccc2)CCCC1 [CARBETAPENTANE] | 1.33
